Experimental findings from patent US8846704B2, “Thiopyrimidine-based compounds and uses thereof” (YM Biosciences Austraila Pty Ltd, priority 2007, dated 2014) are described below.

What all share (assay type): cell-based
Test [1] deals with T1, BaF3 TELJAK2 cells (BafT_J2) (Homo sapiens, UniProt O60674).
T1 construct: fused on or other part: TEL (ETV6) N-terminal part, coding nucleotides 1-487, serves as the oligomerising partner; It is fused through a Sal I site to the JAK2 kinase domain and expressed from pTRE2 in BaF3 cells bearing pTET-off; P41212 (Transcription factor ETV6)
T1 sequence (O60674 whole entry, change not shown, the tested form may be a part): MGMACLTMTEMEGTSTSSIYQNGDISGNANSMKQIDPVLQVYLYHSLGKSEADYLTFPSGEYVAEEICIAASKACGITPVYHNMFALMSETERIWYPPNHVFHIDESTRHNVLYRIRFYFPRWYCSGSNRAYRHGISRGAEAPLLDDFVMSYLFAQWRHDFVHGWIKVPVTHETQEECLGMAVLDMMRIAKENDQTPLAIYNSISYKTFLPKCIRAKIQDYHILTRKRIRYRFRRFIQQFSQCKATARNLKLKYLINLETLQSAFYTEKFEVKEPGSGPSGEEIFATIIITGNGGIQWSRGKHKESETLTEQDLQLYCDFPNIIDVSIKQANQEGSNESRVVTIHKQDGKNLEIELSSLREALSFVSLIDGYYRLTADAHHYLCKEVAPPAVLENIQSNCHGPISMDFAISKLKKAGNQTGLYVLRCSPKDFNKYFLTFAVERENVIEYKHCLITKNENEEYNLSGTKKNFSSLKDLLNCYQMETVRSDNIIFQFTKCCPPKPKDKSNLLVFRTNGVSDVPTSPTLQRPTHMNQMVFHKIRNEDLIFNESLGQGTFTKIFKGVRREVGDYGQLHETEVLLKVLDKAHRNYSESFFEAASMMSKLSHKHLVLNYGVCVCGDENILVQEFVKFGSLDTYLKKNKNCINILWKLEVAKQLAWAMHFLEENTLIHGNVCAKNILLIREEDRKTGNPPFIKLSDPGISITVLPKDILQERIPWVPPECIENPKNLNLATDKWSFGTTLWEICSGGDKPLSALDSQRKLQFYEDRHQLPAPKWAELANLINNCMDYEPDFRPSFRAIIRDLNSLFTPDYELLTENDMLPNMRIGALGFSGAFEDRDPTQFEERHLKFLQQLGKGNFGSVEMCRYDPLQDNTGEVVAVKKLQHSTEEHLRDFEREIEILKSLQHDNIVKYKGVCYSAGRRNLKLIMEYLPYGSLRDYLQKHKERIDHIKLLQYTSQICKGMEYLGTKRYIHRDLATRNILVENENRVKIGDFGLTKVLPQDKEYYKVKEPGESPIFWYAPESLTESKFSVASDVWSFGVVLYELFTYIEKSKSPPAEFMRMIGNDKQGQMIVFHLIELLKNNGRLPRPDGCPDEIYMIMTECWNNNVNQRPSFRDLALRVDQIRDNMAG
In words: Cellular screening, BaF3 TEL:JAK2 cells, Alamar Blue. The note with it: 40 hr, read-out: BafT_J2 IC50_nM. The method, boiled down: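 Tet-off BaF3 cells carrying a TEL (nt 1-487)–JAK2 kinase-domain fusion, grown factor-independently in DMEM with 10% Tet-approved FBS without WEHI 3B medium. Compounds were diluted to 20 μM in screening plates, and cells (50,000–200,000 cell/mL at 1.1×) were incubated 40 hr at 37 °C, 5% CO2. Alamar Blue was then added for 4-6 hours; read at 544 nm.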

The subject of another test is CTLL2. As to the kind of experiment: Cellular screening, CTLL2 cells, Alamar Blue. The note with it: Mus musculus, CTLL-2, read-out: CTLL2 IC50_nM. Summed up: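 Viability is read with Alamar Blue at 544 nm, the dye added for the final 4-6 hours. Compounds were incubated for 40 hr with CTLL2 cells taken from late-log-phase culture, at 37° C in 5% CO2.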
A general note: Resazurin is reduced to fluorescent resorufin, in cell work by metabolically active cells.

Another test concerns the target T2, BaF3 TELJAK3 cells (Homo sapiens, UniProt P52333).
T2 construct: fused on or other part: TEL (ETV6) N-terminal part, coding nucleotides 1-487, serves as the oligomerising partner; It is fused through a Sal I site to the JAK3 kinase domain and expressed from pTRE2 in BaF3 cells bearing pTET-off; P41212 (Transcription factor ETV6)
T2 sequence (P52333 1-1124): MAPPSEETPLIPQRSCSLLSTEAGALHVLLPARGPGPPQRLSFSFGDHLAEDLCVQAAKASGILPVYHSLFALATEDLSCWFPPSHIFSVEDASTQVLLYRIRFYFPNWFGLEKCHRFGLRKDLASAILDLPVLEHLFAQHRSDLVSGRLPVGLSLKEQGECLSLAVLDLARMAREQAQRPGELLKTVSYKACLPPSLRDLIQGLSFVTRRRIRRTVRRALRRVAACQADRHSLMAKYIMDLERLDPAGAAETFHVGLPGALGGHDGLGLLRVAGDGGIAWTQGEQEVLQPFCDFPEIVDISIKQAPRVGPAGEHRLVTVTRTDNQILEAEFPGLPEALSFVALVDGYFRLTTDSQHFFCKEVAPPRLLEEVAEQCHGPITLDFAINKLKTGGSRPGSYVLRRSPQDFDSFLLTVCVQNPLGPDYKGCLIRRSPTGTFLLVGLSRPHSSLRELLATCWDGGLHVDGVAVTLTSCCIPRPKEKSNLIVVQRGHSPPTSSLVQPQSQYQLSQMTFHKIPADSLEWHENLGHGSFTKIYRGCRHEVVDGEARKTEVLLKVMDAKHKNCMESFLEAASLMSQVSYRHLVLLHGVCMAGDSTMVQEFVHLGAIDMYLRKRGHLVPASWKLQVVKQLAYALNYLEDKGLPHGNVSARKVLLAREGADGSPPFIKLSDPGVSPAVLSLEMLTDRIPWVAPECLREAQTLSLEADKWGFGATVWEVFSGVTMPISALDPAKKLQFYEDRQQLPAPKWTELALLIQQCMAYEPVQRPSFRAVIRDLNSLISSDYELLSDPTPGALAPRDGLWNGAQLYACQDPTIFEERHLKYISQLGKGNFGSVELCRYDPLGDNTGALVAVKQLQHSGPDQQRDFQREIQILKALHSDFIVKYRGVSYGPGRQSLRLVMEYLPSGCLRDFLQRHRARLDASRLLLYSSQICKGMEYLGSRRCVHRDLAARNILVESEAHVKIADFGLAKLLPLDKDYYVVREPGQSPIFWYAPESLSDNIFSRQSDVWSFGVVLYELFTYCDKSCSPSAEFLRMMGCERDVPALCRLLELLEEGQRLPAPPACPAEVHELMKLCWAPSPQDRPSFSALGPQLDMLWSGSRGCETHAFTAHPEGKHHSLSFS
As to the kind of experiment: Cellular screening, BaF3 TEL:JAK3 cells, Alamar Blue. The note with it: 40 hr, read-out: BafT_J3 IC50_nM. The method, boiled down:
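Alamar Blue signal at 544 nm, developed for 4–6 h, measured viability after 40 h of compound treatment at 37 °C, 5% CO2. Cells were growth-factor-independent BaF3 lines transfected with a TEL/JAK3 kinase-domain fusion under tet-off control. They were cultured in DMEM, 10% Tet-approved FBS, lacking WEHI 3B conditioned medium.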

For the molecule `C=CC(=O)Nc1ccc(Sc2nc(Nc3cccc(OCCCO)c3)ncc2C)cc1` [Compound 301, N-(4-(2-(3-(3-hydroxypropoxy)phenylao)-5-methylpyrimidin-4-ylthio)phenyl)acrylamide], the GI50 in test [1] is below 20 µM; on BaF3 TELJAK3 cells, below 1 µM. Further, the IC50 with CTLL2 is below 1 µM.
Regarding `C=CC(=O)Nc1ccc(Sc2nc(Nc3ccc(N4CCOCC4)cc3)ncc2-c2ccccc2)cc1` [Compound 307, N-(4-(2-(4-morpholinophenylao)-5-phenylpyrimidin-4-ylthio)phenyl)acrylamide], the GI50 was above 20 µM in test [1] and below 20 µM at BaF3 TELJAK3 cells. The IC50 with CTLL2 was above 20 µM.
Take `Nc1ccc(Sc2nc(Nc3ccc(N4CCOCC4)cc3)ncc2I)cc1` [Compound 309, 4-(4-aophenylthio)-5-iodo-N-(4-morpholinophenyl)pyrimidin-2-ae]: the GI50 (in test [1]; at BaF3 TELJAK3 cells) was below 5 µM in each case. Besides, the IC50 in the test with CTLL2 was below 1 µM.
`C=CC(=O)Nc1ccc(Sc2nc(Nc3ccc(N4CCOCC4)cc3)ncc2I)cc1` [Compound 313, N-(4-(5-iodo-2-(4-morpholinophenylao)pyrimidin-4-ylthio)phenyl)acrylamide]: the GI50 was above 20 µM in test [1] and below 1 µM at BaF3 TELJAK3 cells. For the same molecule, in the test with CTLL2, the IC50 was below 5 µM.
Consider `C=CC(=O)Nc1ccc(Sc2nc(Nc3ccc(N4CCOCC4)cc3)ncc2Cl)cc1` [Compound 315, N-(4-(5-chloro-2-(4-morpholinophenylao)pyrimidin-4-ylthio)phenyl)acrylmide], for which the figures for the GI50 (in test [1]; at BaF3 TELJAK3 cells) were above 20 µM and below 1 µM, respectively. The IC50 in the test on CTLL2 is below 1 µM.
As to `Nc1ccc(Sc2nc(Nc3ccc(N4CCOCC4)cc3)ncc2Cl)cc1` [Compound 318, 4-(4-aophenylthio)-5-chloro-N-(4-morpholinophenyl)pyrimidin-2-ae], the GI50 (in test [1]; on BaF3 TELJAK3 cells) was above 20 µM throughout. For the same molecule, the IC50 with CTLL2 is below 20 µM.
As to `C=C(CN1CCOCC1)C(=O)Nc1cccc(Sc2ccnc(Nc3ccc(N4CCOCC4)cc3)n2)c1` [Compound 328, 2-(morpholinomethyl)-N-(3-(2-(4-morpholinophenylao)pyrimidin-4-ylthio)phenyl)acrylamide], the GI50 in test [1] was below 1 µM; at BaF3 TELJAK3 cells, below 5 µM. In addition, in the test with CTLL2, the IC50 was below 5 µM.
For `O=C(CCl)Nc1cccc(Sc2ccnc(Nc3ccc(N4CCOCC4)cc3)n2)c1` [Compound 332, 2-chloro-N-(3-(2-(4-morpholinophenylao)pyrimidin-4-ylthio)phenyl)acetamide], the GI50 in test [1] is below 5 µM; on BaF3 TELJAK3 cells it was below 1 µM. The IC50 in the test on CTLL2 is below 5 µM.
`O=C(/C=C/Cl)Nc1ccc(Sc2ccnc(Nc3ccc(N4CCOCC4)cc3)n2)cc1` [Compound 342, (E)-3-chloro-N-(4-(2-(4-morpholinophenylao)pyrimidin-4-ylthio)phenyl)acrylamide]: the GI50 in test [1] was above 20 µM; on BaF3 TELJAK3 cells it was below 5 µM. The IC50 in the test on CTLL2 was below 20 µM.
The matching figures for `Cc1cnc(Nc2ccc(N3CCOCC3)cc2)nc1Sc1ccc(NC(=O)/C=C/Cl)cc1` [Compound 343, (E)-3-chloro-N-(4-(5-methyl-2-(4-morpholinophenylao)pyrimidin-4-ylthio)phenyl)acrylamide]: below 20 µM, below 5 µM and below 5 µM.
The matching figures for `CCC(=O)Nc1ccc(Sc2nc(Nc3ccc(N4CCOCC4)cc3)ncc2Cl)cc1` [Compound 347, N-(4-(5-chloro-2-(4-morpholinophenylao)pyrimidin-4-ylthio)phenyl)propionamide]: above 20 µM, below 1 µM and below 5 µM.
As for `C=CC(=O)Nc1ccc(Sc2ccnc(Nc3ccccc3)n2)cc1` [Compound 350, N-(4-(2-(phenylao)pyrimidin-4-ylthio)phenyl)acrylamide], the GI50 (in test [1]; on BaF3 TELJAK3 cells) was below 20 µM each time. Further, the IC50 in the test on CTLL2 was below 20 µM.
With `C=CC(=O)Nc1ccc(Sc2ccnc(Nc3ccc(S(N)(=O)=O)cc3)n2)cc1` [Compound 352, N-(4-(2-(4-sulfamoylphenylao)pyrimidin-4-ylthio)phenyl)acrylamide], the GI50 (in test [1]; at BaF3 TELJAK3 cells) was below 20 µM in each case. Also, the IC50 in the test with CTLL2 is below 20 µM.
On to `C=CC(=O)Nc1ccc(Sc2ccnc(Nc3ccc(Cl)cc3)n2)cc1` [Compound 353, N-(4-(2-(4-chlorophenylao)pyrimidin-4-ylthio)phenyl)acrylamide], for which the GI50 in test [1] is below 20 µM; at BaF3 TELJAK3 cells it was below 5 µM. Further, the IC50 in the test with CTLL2 is below 5 µM.
Consider `C=CC(=O)Nc1ccc(Sc2ccnc(Nc3ccc(F)c(C#N)c3)n2)cc1` [Compound 354, N-(4-(2-(3-cyano-4-fluorophenylao)pyrimidin-4-ylthio)phenyl)acrylamide], for which the GI50 (in test [1]; at BaF3 TELJAK3 cells) was below 20 µM each time. Further, the IC50 with CTLL2 is below 20 µM.
With `C=CC(=O)Nc1ccc(Sc2ccnc(Nc3cccc(N4CCCC4)c3)n2)cc1` [Compound 355, N-(4-(2-(3-(pyrrolidin-1-yl)phenylao)pyrimidin-4-ylthio)phenyl)acrylamide], the GI50 in test [1] was below 20 µM; at BaF3 TELJAK3 cells it was below 5 µM. Moreover, in the test on CTLL2, the IC50 is below 5 µM.
For `C=CC(=O)Nc1ccc(Sc2ccnc(Nc3cccc(C(=O)OC)c3)n2)cc1` [Compound 356, methyl 3-(4-(4-acrylamidophenylthio)pyrimidin-2-ylao)benzoate], the values for the GI50 (in test [1]; on BaF3 TELJAK3 cells) were below 20 µM and below 5 µM, respectively. Also, in the test on CTLL2, the IC50 was below 5 µM.
Turning to `C=CC(=O)Nc1ccc(Sc2ccnc(Nc3cccc([N+](=O)[O-])c3)n2)cc1` [Compound 361, N-(4-(2-(3-nitrophenylao)pyrimidin-4-ylthio)phenyl)acrylamide], the GI50 (in test [1]; on BaF3 TELJAK3 cells) was below 5 µM throughout. In addition, the IC50 in the test with CTLL2 is above 20 µM.
As to `C=CC(=O)Nc1ccc(Sc2ccnc(Nc3cccc(S(N)(=O)=O)c3)n2)cc1` [Compound 364, N-(4-(2-(3-sulfamoylphenylao)pyrimidin-4-ylthio)phenyl)acrylamide], the figures for the GI50 (in test [1]; at BaF3 TELJAK3 cells) were below 5 µM and below 1 µM, respectively. Besides, the IC50 in the test on CTLL2 was below 1 µM.
Consider `C=CC(=O)Nc1ccc(Sc2ccnc(Nc3cccc(S(=O)(=O)N4CCN(C)CC4)c3)n2)cc1` [Compound 365, N-(4-(2-(3-(4-methylpiperazin-1-ylsulfonyl)phenylao)pyrimidin-4-ylthio)phenyl)acrylamide], for which the GI50 in test [1] is below 20 µM; on BaF3 TELJAK3 cells it was below 5 µM. The IC50 with CTLL2 is below 20 µM.
Turning to `C=CC(=O)Nc1ccc(Sc2ccnc(Nc3cccc(S(=O)(=O)NCc4ccccc4)c3)n2)cc1` [Compound 366, N-(4-(2-(3-(N-benzylsulfamoyl)phenylao)pyrimidin-4-ylthio)phenyl)acrylamide], the figures for the GI50 (in test [1]; on BaF3 TELJAK3 cells) were below 20 µM and below 5 µM, respectively. Further, in the test with CTLL2, the IC50 is below 5 µM.
Turning to `C=CC(=O)Nc1ccc(Sc2ccnc(Nc3ccc(S(=O)(=O)N4CCOCC4)cc3)n2)cc1` [Compound 367, N-(4-(2-(4-(morpholinosulfonyl)phenylao)pyrimidin-4-ylthio)phenyl)acrylamide], the GI50 in test [1] is below 20 µM; at BaF3 TELJAK3 cells it was below 5 µM. Further, the IC50 with CTLL2 was below 20 µM.
